Test [1] deals with Poly [ADP-ribose] polymerase 1 (Homo sapiens, UniProt P09874).
Description: Inhibition of human recombinant PARP1
Test [2] has as its system PC-12. The test is described as follows: Cytoprotective activity against H2O2-induced cell death in rat PC12 cells by MTT assay after 6 hrs. The class given is functional, cell-based. As to conditions: PC-12, 6 h.
Test [3] has as its system PC-12. The test is described as follows: Cytoprotective activity against oxygen-glucose deprivation-induced cell death in rat PC12 cells by MTT assay. The class given is functional, cell-based. In general terms: Tetrazolium dyes change colour on reduction, which living cells bring about.
The subject of test [4] is PC-12. Put plainly: Cytoprotective activity in rat PC12 cells assessed as reduction in oxygen-glucose deprivation-induced LDH release at 3 uM. The class given is functional. The arrangement: scale not given: the % may be the effect or the level left. A general note: LDH in the medium is a marker of cell lysis.
The test system of test [5] is PC-12. The test is described as follows: Cytoprotective activity against oxygen-glucose deprivation-induced apoptosis in rat PC12 assessed as damaged cells at 3 uM by flow cytometry using FITC-conjugated annexin V and propidium iodide staining relative to control. It is filed as functional. In general terms: Flow cytometry measures light scatter and fluorescence of single cells or particles in a stream.

For test [6], the system named is PC-12. The test is described as follows: Cytoprotective activity against oxygen-glucose deprivation-induced apoptosis in rat PC12 assessed as live cells at 3 uM by flow cytometry using FITC-conjugated annexin V and propidium iodide staining relative to control. The class given is functional.
The subject of test [7] is PC-12. The test is described as follows: Cytoprotective activity against oxygen-glucose deprivation-induced apoptosis in rat PC12 assessed as early apoptotic cells at 3 uM by flow cytometry using FITC-conjugated annexin V and propidium iodide staining relative to control. It is filed as functional.
Test [8] concerns PC-12. The test is described as follows: Cytoprotective activity against oxygen-glucose deprivation-induced apoptosis in rat PC12 assessed as total apoptotic cells at 3 uM by flow cytometry using FITC-conjugated annexin V and propidium iodide staining relative to control. It is filed as functional.
For test [9], the system named is PC-12. Put plainly: Cytoprotective activity against oxygen-glucose deprivation-induced apoptosis in rat PC12 assessed as late apoptotic cells at 3 uM by flow cytometry using FITC-conjugated annexin V and propidium iodide staining relative to control. It is filed as functional.

From ChEMBL document CHEMBL1143348, “Design, synthesis, and cytoprotective effect of 2-aminothiazole analogues as potent poly(ADP-ribose) polymerase-1 inhibitors” (J Med Chem, 2009) come the findings set out here.

By IC50 is commonly meant the concentration at which inhibition is half-maximal. One may read the EC50 as the concentration at which the effect is half-maximal.

Sequence of Poly [ADP-ribose] polymerase 1 (P09874 whole entry): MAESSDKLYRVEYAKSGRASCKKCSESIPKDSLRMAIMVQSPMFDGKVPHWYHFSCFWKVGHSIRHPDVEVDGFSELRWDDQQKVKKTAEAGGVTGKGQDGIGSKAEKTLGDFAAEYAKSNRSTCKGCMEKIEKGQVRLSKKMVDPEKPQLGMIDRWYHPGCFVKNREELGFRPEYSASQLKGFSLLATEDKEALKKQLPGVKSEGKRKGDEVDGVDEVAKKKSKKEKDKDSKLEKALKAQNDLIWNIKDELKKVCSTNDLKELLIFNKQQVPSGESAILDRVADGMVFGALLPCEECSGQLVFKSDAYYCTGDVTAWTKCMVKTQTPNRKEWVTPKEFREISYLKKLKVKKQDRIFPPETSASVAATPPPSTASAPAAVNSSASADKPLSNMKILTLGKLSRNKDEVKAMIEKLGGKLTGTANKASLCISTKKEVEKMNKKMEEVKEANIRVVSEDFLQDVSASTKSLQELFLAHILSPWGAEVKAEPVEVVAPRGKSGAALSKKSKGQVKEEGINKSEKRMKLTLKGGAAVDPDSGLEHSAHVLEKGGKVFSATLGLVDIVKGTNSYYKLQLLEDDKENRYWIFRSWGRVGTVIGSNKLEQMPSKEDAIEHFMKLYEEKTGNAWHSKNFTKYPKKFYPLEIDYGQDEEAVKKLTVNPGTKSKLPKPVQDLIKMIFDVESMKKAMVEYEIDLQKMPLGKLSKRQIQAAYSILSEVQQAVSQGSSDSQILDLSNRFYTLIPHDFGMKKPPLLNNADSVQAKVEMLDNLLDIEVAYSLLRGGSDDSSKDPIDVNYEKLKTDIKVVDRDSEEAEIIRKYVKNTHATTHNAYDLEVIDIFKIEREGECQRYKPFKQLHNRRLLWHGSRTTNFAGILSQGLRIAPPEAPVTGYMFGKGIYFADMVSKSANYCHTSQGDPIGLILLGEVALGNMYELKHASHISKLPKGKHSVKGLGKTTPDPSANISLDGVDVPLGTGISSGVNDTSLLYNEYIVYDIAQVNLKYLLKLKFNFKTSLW

As for `O=c1[nH]c(CCCN2CC=C(c3ccccc3)CC2)nc2cccc(Cl)c12`, in test [1], half-maximal inhibition (IC50) required 682 nM.
Still for that read-out and setting: the value for `O=c1[nH]c2ccc(CCCN3CC=C(c4ccccc4)CC3)cc2c2ccccc12` was 119 nM.
Regarding `CCOC(=O)CCC(=O)Nc1nc2c(s1)CCCC2`, the EC50 in test [2] was more than 3000 nM; in test [3], 961 nM. In [1], the IC50 is 12400 nM.
As for `O=C(/C=C/c1ccccc1)Nc1nc(-c2ccccc2)cs1`, the Activity in [4] came out at 33.1%; in [5], 3.9%; in test [6], 84%; in [7], 8.4%; in test [8], 64.4%; in test [9] it was 3.7%. Further, the EC50 in test [2] was determined as 129 nM; in test [3], 559 nM. This molecule also yielded an IC50 in [1] of 224 nM.
Take `CCOC(=O)CCC(=O)Nc1nc(-c2ccccc2)cs1`: the Activity was determined as 34.6% in test [4]; 5% in test [5]; 80.6% in [6]; 8.5% in [7]; 70.7% in test [8]; 5.9% in [9]. The EC50 in test [2] amounted to 537 nM; in test [3], 143 nM. Moreover, the IC50 in test [1] amounted to 240 nM.
Consider `Nc1ncnc2c1ncn2[C@@H]1O[C@H](COCNC(=O)CCC(=O)Nc2cccc3c2CNC3=O)[C@@H](O)[C@H]1O`, for which the IC50 in test [1] was 100 nM.
The same measure, in the same setting: the value for `Cc1sc(-c2ccccc2)nc1C(=O)Nc1cccc(Cc2n[nH]c(=O)c3ccccc23)c1` was 27 nM.
On the same count and under the same terms, to `O=C(CCn1c2c(c(=O)[nH]c1=O)CSCC2)NCC(=O)c1ccc(-c2ccnnc2)cc1` belongs 25 nM.
Molecule `O=C1NCCn2c(CN3CCCCC3)cc3cccc1c32` showed a half-inhibitory concentration (IC50) in [1] of 109 nM.
In turn, `O=c1[nH]c2ccc(CCN3CC=C(c4ccccc4)CC3)cc2c2ccccc12` had an IC50 in test [1] of 46 nM.
For the molecule `CCOc1ccc(-c2csc(/N=C/c3c[nH]c4ccccc34)n2)c(OCC)c1`, the Activity in test [4] came to 28.4%. Besides, the values for the EC50 in test [2] and in [3] were 324 nM and 361 nM, respectively. The molecule also registered an IC50 in test [1] of 240 nM.
In the case of `CN(C)CCCOc1ccc(-c2nc3cccc4c3n2CCNC4=O)cc1`, half-maximal inhibition in [1] (IC50) was put at 63 nM.
The molecule `O=c1[nH]c(CCCN2CC=C(c3ccccc3)CC2)nc2c1CCC2` had an IC50 in test [1] of 249 nM.
On the same count and under the same terms, to `CC1CCc2nc(CCCN3CC=C(c4ccccc4)CC3)[nH]c(=O)c2C1` (configuration not stated) belongs 274 nM; to `CCOC(=O)c1ccc(CCc2nc3cccc4c3n2CCNC4=O)cc1`, 97 nM.
With `O=C(Nc1nc(-c2ccccc2)cs1)c1ccncc1`, the Activity was found to be 20.1% in test [4]; 6% in [5]; 73.8% in test [6]; 8.6% in [7]; 45.1% in test [8]; 11.6% in test [9]. In addition, the concentration giving a half-maximal response (EC50) came out at 1550 nM in [2] and 191 nM in test [3]. In addition, the IC50 in test [1] was found to be 753 nM.
Take `COc1cc(/C=C/C(=O)Nc2nc(-c3ccccc3)cs2)cc(OC)c1`: the Activity in test [4] was 24%. The EC50 worked out at 1120 nM in test [2] and 527 nM in test [3]. In test [1], this molecule returned an IC50 of 4530 nM.
Turning to `COc1cc(/C=C/C(=O)Nc2nc3c(s2)CCCC3)cc(OC)c1`, the EC50 amounted to 2090 nM in [2] and 1040 nM in test [3]. The 50% inhibitory concentration (IC50) in test [1] is 9330 nM.
